From patent US20260294922A1, “Inhibitors of JUN N-Terminal Kinases (JNK1, JNK2, and/or JNK3) and Mitogen-Activated Protein Kinases (MAPK8, MAPK9, and/or MAPK10) and Methods of Using Same” (Baylor College of Medicine, priority 2023, published 2026)
Where “and” joins values, the source holds several entries; their conditions need not be identical. Equal values may be shown once. Entries after “also recorded” stand apart in the source; their conditions may differ.

Tests used:
[1] = Plasma ALT and AST after oral administration; assay type: in vivo, mouse; settings: 24 h post-dose, individual mice 1-4
[2] = system: primary human endometriotic stromal cells (patient 50); assay: IL-1β-stimulated pro-inflammatory gene expression in primary endometriotic stromal cells, patient 50; assay type: cell-based; settings: patient 50, relative to CDD-939
Description: FIGS. 14G-14H represent responses of primary human endometriotic stromal cells [from the endometrioma lesion] from endometriosis patient “50”.
FIGS. 15A-15H provide replicate results of the response of primary human endometriotic stromal cells (derived from the lesions) obtained from endometriosis patient “50”. In each example. […] In each example, CDD-2728 inhibited IL-1β-stimulated pro-inflammatory biomarker responses in primary endometriotic stromal cell cultures. Lower concentrations of JNK inhibitors were required to reduce the proinflammatory response of IL-1β in stromal cells than the concentration of JNK-I in 12Z epithelial cells.
Another target tissue of JNK inhibitors in the treatment of endometriosis are endometriotic stromal cells. To further exemplify the relevance of the discoveries of novel JNK inhibitors for endometriosis, stromal cells obtained from the endometriotic lesions of a patient with endometriosis have been cultured. The compliant identifier for this patient is Eosis50. These cells represent stromal cells from an ovarian endometrioma. Similar to culture system described elsewhere herein, the inflammatory environment of peritoneal endometriosis was simulated by the addition of IL-1β and increasing concentrations of either bentamapimod or CDD-2728 were added to these stromal cell cultures. […]

[3] = system: endometriotic lesions; assay: Immunofluorescent staining of endometriotic lesions from treated mice; assay type: in vivo; settings: 14 days, intraperitoneal
Description: FIG. 23 depicts immunofluorescent staining of sections of remaining endometriotic lesions following 14 days of treatment with CDD-2728 or with a vehicle solution (i.e., Captisol) by intraperitoneal administration.
This illustrates a common mechanism of JNK-I from the chemical series of the disclosure and their ability to target endometriotic lesions, and the innate immune cells that drive an inflammatory response within the lesions.

[4] = system: immortalized human endometriotic epithelial cells (iHEEC); assay: Phosphorylation of JNK and Jun in iHEEC; assay type: cell-based
Description: FIG. 26A depicts the effects of CDD-2728 and CDD-3013 on phosphorylation of the JNK enzyme itself (i.e., representing MEK4 inhibition) and phosphorylation of pSer63 and pSer73 on the transcription factor Jun in immortalized human endometriotic epithelial cells (iHEEC). The HEEC cells are a well characterized cell line that are relevant for the evaluation of inflammatory endpoints and measures of epithelial-to-mesenchymal transitions (EMT). […] This is consistent with the potency relationships of CDD-2728 relative to bentamapimod observed in cytokine gene expression described above in iHEEC cells and primary human stromal endometriotic cells. […] SP600125 has been frequently described as a poorly-selective JNK-I but in this context provides additional confirmation of inhibition of the JNK target kinase for CDD-2728. […] This adds further support to the critical role of JNK-1 to the therapeutic effect of the JNK inhibitors of the disclosure.

SMILES: CN(C)C(=O)c1cc(NC(=O)c2cc3c(-c4cnc5[nH]ccc5c4)cccc3s2)ccc1O [CDD-2728, N-(3-(dimethylcarbamoyl)-4-hydroxyphenyl)-4-(1H-pyrrolo[2,3-b]pyridin-5-yl)benzo[b]thiophene-2-carboxamide]
- ALT [1]: 43.49 IU/L and 21.92 IU/L and 36.24 IU/L and 30.94 IU/L
- AST [1]: 69.13 IU/L and 76.02 IU/L and 61.79 IU/L and 41.64 IU/L
- inhibition of IL-6, IL-8, MMP-3 and PTGS2 gene expression [2]: effective inhibitor of IL-6 gene expression; also recorded: more effective inhibitor of the biomarkers IL-8, MMP-3, and PTGS2 gene expression than CDD-939; also recorded: superior efficacy and potency
- CD31 (endothelial cells, angiogenesis) [3]: reduces the presence of cells corresponding to leukocytes, platelets, and endothelial cells (CD31); also recorded: angiogenesis (anti-CD31 antibody)
- macrophage infiltration (F4/80) [3]: decreases infiltration of endometriotic lesions by macrophages (F4/80)
- proliferation of lesions (Ki67) [3]: reduced rates of proliferative cell growth; also recorded: reduced cellular proliferation
- phosphorylation of JNK1 (P46) and JNK2 (P54) [4]: inhibits phosphorylation of JNK1 (P46) and JNK2 (P54)
- phosphorylation of Jun at pSer63 and pSer73 [4]: more effectively than CDD-939
